Experimental data as given in patent publication US8546482B2, “Low odor compositions and low odor coating compositions” (Rohm and Haas Company, priority 2009, dated 2013).

Legend:
Type in all cases: biochemical
[1] = target: T1, CALBL (Moesziomyces antarcticus, UniProt P41365); experiment: Small molecule inhibitors, EA content of latex containing CALBL; design: EA content (column not headed): unit not given here; settings: for Inhibition of the carboxylesterase enzyme (in words): CALBL 60 ppm, inhibitor 1.0%; for Effect of low inhibitor levels on enzyme activity (in words) / EA content (column not headed): CALBL 6 ppm; for Effect of low inhibitor levels on enzyme activity (in words): inhibitor as low as 0.01% or even 0.001% (solid on wet latex); for EA content (column not headed): latex
T1 construct: purchased Novozymes, Bagsvaerd, Denmark Novozym CALB L
T1 sequence (P41365 26-342): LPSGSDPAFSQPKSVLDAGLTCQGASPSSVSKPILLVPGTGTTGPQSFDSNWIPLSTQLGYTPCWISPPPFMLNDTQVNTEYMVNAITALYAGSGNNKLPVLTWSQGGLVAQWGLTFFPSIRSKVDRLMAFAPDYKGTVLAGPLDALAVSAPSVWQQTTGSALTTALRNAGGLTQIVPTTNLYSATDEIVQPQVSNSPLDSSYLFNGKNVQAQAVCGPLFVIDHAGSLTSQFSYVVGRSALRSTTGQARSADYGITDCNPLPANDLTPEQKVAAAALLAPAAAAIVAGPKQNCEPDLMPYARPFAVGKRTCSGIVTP
Description: (§1) In another embodiment, deactivation of the carboxylesterase enzyme may be achieved by the addition of a small molecule inhibitor, as shown for CALBL and N51032 in Tables 13 and 14, below. […] The small molecule inhibitor and CALBL were added simultaneously at the time t=0. In the following tables, the potential small molecule inhibitors are as follows: • PBA—phenylboronic acid • S-1-DS—Sodium 1-decane-sulfonate • NPB—Neopentylboronic acid • 2MPB—(2-methylpropyl)boronic acid • CBA—cyclohexylboronic acid
(§2) Again, optimization of the level of use for PBA and 2MPB in the latex is explored below, in Tables 15 and 16, respectively, by the same procedure.

[2] = test system: N51032; experiment: Small molecule inhibitors, EA content of latex containing N51032; settings: N51032 5 ppm; for Effect of low inhibitor levels on enzyme activity (in words): inhibitor as low as 0.01% or even 0.001% (solid on wet latex); for EA content (column not headed): latex
[3] = test system: N51032; experiment: as above; settings: N51032 50 ppm; inhibitor 1%
Description: as §1
The small molecule inhibitors are added at 1% by weight of solids on weight of wet latex (at the same time as the esterase).
as §2

| Structure (SMILES) | Inhibition of the carboxylesterase enzyme (in words) [1] | Effect of low inhibitor levels on enzyme activity (in words) [1] | EA content (column not headed) ([1]; inhibitor 0.001%, 0 hr) | EA content (column not headed) ([1]; inhibitor 0.001%, 120 hr) | EA content (column not headed) ([1]; inhibitor 0.001%, 168 hr) | EA content (column not headed) ([1]; inhibitor 0.001%, 384 hr) | EA content (column not headed) ([1]; inhibitor 0.001%, 480 hr) | EA content (column not headed) ([1]; inhibitor 0.01%, 0 hr) | EA content (column not headed) ([1]; inhibitor 0.01%, 120 hr) | EA content (column not headed) ([1]; inhibitor 0.01%, 168 hr) | EA content (column not headed) ([1]; inhibitor 0.01%, 384 hr) | EA content (column not headed) ([1]; inhibitor 0.01%, 480 hr) | EA content (column not headed) ([1]; inhibitor 0.1%, 0 hr) | EA content (column not headed) ([1]; inhibitor 0.1%, 120 hr) | EA content (column not headed) ([1]; inhibitor 0.1%, 168 hr) | EA content (column not headed) ([1]; inhibitor 0.1%, 384 hr) | EA content (column not headed) ([1]; inhibitor 0.1%, 480 hr) | Effect of low inhibitor levels on enzyme activity (in words) [2] | EA content (column not headed) ([2]; inhibitor 0.001%, 0 hr) [ppm] | EA content (column not headed) ([2]; inhibitor 0.001%, 120 hr) [ppm] | further results |
| --- | --- | --- | --- | --- | --- | --- | --- | --- | --- | --- | --- | --- | --- | --- | --- | --- | --- | --- | --- | --- | --- |
| OB(O)C1CCCCC1 [CBA, cyclohexylboronic acid] | some ability to inhibit the CALBL enzyme |  |  |  |  |  |  |  |  |  |  |  |  |  |  |  |  |  |  |  |  |
| CC(C)(C)CB(O)O [NPB, Neopentylboronic acid] | completely ineffective as an inhibitor |  |  |  |  |  |  |  |  |  |  |  |  |  |  |  |  |  |  |  |  |
| OB(O)c1ccccc1 [PBA, phenylboronic acid] | effective in inhibiting the carboxylesterase enzyme | sufficient to shut off the enzyme activity | 48 | 30 | 25 | 11 | 9 | 44 | 32 | 26 | 15 | 15 | 39 | 35 | 35 | 29 | 29 | sufficient to shut off the enzyme activity | 46 | 36 | EA content (column not headed) ([2]; inhibitor 0.001%, 168 hr): 34 ppm; EA content (column not headed) ([2]; inhibitor 0.001%, 384 hr): 22 ppm; EA content (column not headed) ([2]; inhibitor 0.001%, 480 hr): 19 ppm; EA content (column not headed) ([2]; inhibitor 0.01%, 0 hr): 45 ppm; EA content (column not headed) ([2]; inhibitor 0.01%, 120 hr): 41 ppm; EA content (column not headed) ([2]; inhibitor 0.01%, 168 hr): 39 ppm; EA content (column not headed) ([2]; inhibitor 0.01%, 384 hr): 34 ppm; EA content (column not headed) ([2]; inhibitor 0.01%, 480 hr): 34 ppm; EA content (column not headed) ([2]; inhibitor 0.1%, 0 hr): 46 ppm; EA content (column not headed) ([2]; inhibitor 0.1%, 120 hr): 34 ppm; EA content (column not headed) ([2]; inhibitor 0.1%, 168 hr): 41 ppm; EA content (column not headed) ([2]; inhibitor 0.1%, 384 hr): 38 ppm; EA content (column not headed) ([2]; inhibitor 0.1%, 480 hr): 39 ppm; Inhibition of the carboxylesterase enzyme (in words) [3]: effective in inhibiting the carboxylesterase enzyme |
| CC(C)CB(O)O [Paint 2MPB, (2-methylpropyl)boronic acid] | effective in inhibiting the carboxylesterase enzyme | sufficient to shut off the enzyme activity | 44 | 32 | 23 | 10 | 8 | 43 | 28 | 24 | 13 | 11 | 43 | 34 | 25 | 15 | 13 | sufficient to shut off the enzyme activity | 42 | 24 | EA content (column not headed) ([2]; inhibitor 0.001%, 168 hr): 22 ppm; EA content (column not headed) ([2]; inhibitor 0.001%, 384 hr): 8 ppm; EA content (column not headed) ([2]; inhibitor 0.001%, 480 hr): 6 ppm; EA content (column not headed) ([2]; inhibitor 0.01%, 0 hr): 37 ppm; EA content (column not headed) ([2]; inhibitor 0.01%, 120 hr): 25 ppm; EA content (column not headed) ([2]; inhibitor 0.01%, 168 hr): 19 ppm; EA content (column not headed) ([2]; inhibitor 0.01%, 384 hr): 6 ppm; EA content (column not headed) ([2]; inhibitor 0.01%, 480 hr): 5 ppm; EA content (column not headed) ([2]; inhibitor 0.1%, 0 hr): 43 ppm; EA content (column not headed) ([2]; inhibitor 0.1%, 120 hr): 34 ppm; EA content (column not headed) ([2]; inhibitor 0.1%, 168 hr): 27 ppm; EA content (column not headed) ([2]; inhibitor 0.1%, 384 hr): 22 ppm; EA content (column not headed) ([2]; inhibitor 0.1%, 480 hr): 20 ppm |
| CCCCCCCCCCS(=O)(=O)[O-].[Na+] [Paint S-1-DS, Sodium 1-decane-sulfonate] | some ability to inhibit the CALBL enzyme |  |  |  |  |  |  |  |  |  |  |  |  |  |  |  |  |  |  |  |  |
